# Patent US20090298752A1, “APLIDINE TREATMENT OF CANCERS” (PHARMA MAR, S.A., priority 1999, published 2009)
# “Also recorded” adds a separate entry of the source.
# Assays:
# [1] = stability testing of aplidine and lyophilised dosage form; format: physicochemical; conditions: solubilised; heat and light stress testing
# Procedure: In a currently preferred embodiment freeze-drying was performed from a 500 mg/mL solution of aplidine in 40% (v/v) tert-butanol in Water for Injection (WfI) containing 25 mg/mL D-mannitol as bulking agent.
# Prostate PC-3 = assay: sc hollow fibre (HF), prostate tumour cells, rat; format: in vivo; conditions: 0.70 mg/kg, 0.7 mg/kg
# Procedure: Different model systems were evaluated to provide the basis for further clinical work. Selective antitumour activities were seen against two histologically different solid tumours: human gastric and prostate carcinomas. Potent in vitro activity to primary gastric tumour specimens or Hs746T gastric tumour cells is evident with IC30 values of 146 and 450 pM, respectively. […] activities were evaluated in nude rodents using sc implanted tumour fragments or hollow fibres (HF) containing tumour cells.
# Follow-up studies necessitated using rats for iv infusions. With this variation, a 24 hr iv infusion schedule produced similar activities against HF gastric (20%) and HF prostate (31%) tumour cells. Cytotoxicity was also found using a 5 day iv infusion schedule against HF prostate tumour cells (33%).
# FLT-1 (VEGF-R1) = assay: cDNA expression array, PCR, Western in MOLT-4 cells; format: cell-based, human; conditions: for quantitative change in FLT-1 expression: MOLT-4, 1 h treatment
# Procedure: (§1) The early changes in gene expression induced by aplidine in MOLT-4 cells were evaluated by using cDNA expression arrays (Atlas Human Cancer, Clontech). MOLT-4 cells were treated for 1 hour with concentrations of aplidine which inhibit the growth by 50% and total RNA was isolated at 0, 1, 6 and 24 hours after drug wash out. Filters were hybridised with equal amount of 32P labelled cDNA. Analysis of the results was carried out using ATLAS IMAGE 1.0 software. Changes in gene expression greater than 2 fold were taken as significant changes in RNA expression and subsequently confirmed by PCR.
# as §1, with “In the present study we have evaluated the early” for “The early”, “cells” for “cells were evaluated”, “of aplidien” for “of aplidine”, “isolated t” for “isolated at”, “equal amounts” for “equal amount”, “PCR. […] Whether the down-regulation of flt-1 is involved in the cytotoxic and antitumour effect of aplidine is under investigation at the moment.” for “PCR.”
# The human leukaemia cell line MOLT-4 was used for these experiments MOLT-4 cells were treated for 1 hour with 20 nM of aplidine. Total RNA was extracted at the end of treatment and 6 and 24 hours after recovery in drug-free medium.
# 5 μg of total RNA were retrotanscribed to cDNA in the presence of ^32P dATP. Equal amounts of radioactive probes were hybridised to Atlas Human Cancer Microarrays (Clontech). After washing, filter were exposed and the results analysed using the Atlas Image software. Only a gene expression difference greater than 2 fold between treated and untreated cells were taken into account. RT-PCR and northern analysis have been performed to confirm the changes in gene expression found with the microarrays.
# advanced solid tumours = assay: Phase I, 24 h infusion weekly x3 q4wk: antitumour activity; format: in vivo, human
# Procedure: In this study 16 patients were treated. patients characteristics: median age 55 years, median PS 1, male/female 11/5, tumour types being as follows: Head and neck 5, kidney 2, colon 3, rectum 2, sarcoma 1 and melanoma 3, all pre-treated with chemotherapy (median 2 lines).
# Aplidine was administered as a 24 h infusion at the following dose levels (Dls): 133 (3 pts), 266 (3 pts), 532 (3 pts), 1000 (3 pts), 2000 (3 pts) and 3000 (1 pt) mcg/m^2/wk×3 every 28 days.
# To date, 25 pts (median age 58 yrs, median ECOG 1) with advanced, previously treated solid tumours or lymphoma have been treated in this phase I study. Using a schedule of APL 24 h weekly×3 followed by 1 wk rest, the following dose levels have been tested: 133 (n-3 pts), 266 (3), 532 (3), 1000 (3), 2000 (3), 4500 (3) and 3750 μg/m^2/wk (3). With 60 cycles (180 infusions) administered, all pts are evaluable for toxicity. The Maximum Tolerated Dose was 4500 μg/m^2/wk×3 with grade (G) 3 muscular toxicity (biopsy proven type II muscular atrophy). G4 CPK and G3 transaminitis the dose-limiting toxicities in 2 or 4 pts. […] All pts have been sampled for PK analysis by LC/MS/MS. […] As expected, neuromuscular toxicity is dose-limiting. The possible recommended dose of 3750 μg/m^2/wk×3 is being assessed.
# A phase I trial was performed using 24 hour infusion weekly×3 followed by 1 wk rest. 32 patients (median age 58 yrs, median ECOG 1) with advanced, previously treated solid tumours have been treated. They have received 64 courses (median/pt: 2 (1-6)) across 8 dose levels: 133 (3 pts), 266 (3 pts), 532 (3 pts), 1000 (3 pts), 2000 (3 pts), 3000 (3 pts), 4500 (4 pts) and 3750 mcg/m^2/wk (10 pts). 2 out of 3 evaluable patients had DLT at 4500 mcg/m^2/wk: grade (G) 4 reversible neuromuscular toxicity (biopsy prevent type II muscular atrophy) and G4 CK increase (1 pt), and transient G3 transaminitis (1 pt). Other toxicities included G 1-2 malaise (most patients treated at ≧3000 mcg/m^2/wk), muscle cramps, G 1-2 emesis (responsive to antiemetics) and injection site reaction (very common and concentration-dependent). All patients have been sampled for PK analysis by a LC/MS/MS method. Pharmacokinetics are linear and the profiles fit a 2 compartment open model. […] Maintained plasma levels >1 ng/ml (active in vitro) were obtained at doses ≧3000 mcg/m^2. […] Four additional patients had minor responses or stable disease for >4 months. […] The recommended dose for future trials, 3750 mcg/m^2/wk×3, administered through a central vein catheter, is feasible and associated with mild toxicity.
substance,measurement,setting,value
aplidine,degradation,[1],substantial degradation
same,Activity (% T/C.),Prostate PC-3; 24 hr.iv inf.,31 % T/C
same,Activity (% T/C.),"Prostate PC-3; 5 day, iv inf",33 % T/C
same,"expression of VEGF-RI/flt-1 gene, in words","FLT-1 (VEGF-R1); MOLT-4, 20 nM 1 h, at the end of treatment",decreased
same,"levels of flt-1, in words","FLT-1 (VEGF-R1); MOLT-4, 20 nM 1 h, by 6 and 24 hours",further decreased
same,quantitative change in FLT-1 expression,FLT-1 (VEGF-R1); 1 Hour,−1.5 fold
same,quantitative change in FLT-1 expression,FLT-1 (VEGF-R1); 6 Hours,−5.0 fold
same,quantitative change in FLT-1 expression,FLT-1 (VEGF-R1); 24 Hours,−3.4 fold
same,"expression of VEGF-R1 (flt-1), in words","FLT-1 (VEGF-R1); MOLT-4, RNA level by PCR, protein level by Western blotting",downregulated; also recorded: inhibits expression; also recorded: marked time-dependent reduction; also recorded: decrease in flt-1 mRNA
same,"clinical response, pre-treated advanced melanoma","advanced solid tumours; DL 532 mcg/m^2/w, 1 patient",clinical improvement
same,"response, Patient #034, thyroid medullary carcinoma",advanced solid tumours; decrease in CEA marker,Clinical improvement and SD at lung lymphangitis
same,duration of minor responses or stable disease,advanced solid tumours; four additional patients,> 4 months
same,"response, Patient #008, non measurable metastatic melanoma",advanced solid tumours; highly pre-treated,clinical improvement and tumour shrinkage
same,"tumour shrinkage, Patient #032, renal carcinoma",advanced solid tumours; in vivo,20%
same,"duration of clinical improvement, advanced melanoma resistant to DTIC/interferon",advanced solid tumours; one patient,> 30 weeks
